Test results published in patent US11512074B2, “Substituted diamino heterocyclic carboxamide compound and a composition containing the compound and use thereof” (Shenzhen TargetRx, Inc., priority 2018, dated 2022).
Where two headings read alike, the source gives them in different places.

How the values were obtained:
[1] = system: MV-4-11 cells; test: Inhibition of cell MV-4-11 proliferation (CTG assay); format: cell-based; settings: Homo sapiens, MV4-11, 72 hours
Source text: (§1) Cell MV-4-11 (ATCC, Cat. No. CRL-9591), cell MOLM-13 (COBIOER, Cat. No. CBP60678), RPMI-1640 (GIBCO, Cat. No. A10491-01), penicillin-streptomycin (GIBCO, Cat. No. 15140-122), fetal bovine serum (GIBCO, Cat. No. 10099-141), phosphate buffer solution PBS (GIBCO, Cat. No. 10010-031), DMSO (Sigma, Cat. No. D8418-1L), CelltiterGlo Assay kit (CTG) (Promega, Cat. No. G7573), 96-well plate with transparent flat bottom and black walls (PerkinElmer, Cat. No. 6005680-50), plate shaker (QILINBEIER, Cat. No. B-9002), centrifuge (Eppendorf, Cat. No. 5804R), CO2 incubator (Thermo Scientific, Cat. No. 371), microscope (OLYMPUS Cat. No. CKX41), multi-plate reader (PerkinElmer, Cat. No. EnVision).
(§2) (2) Preparation of Cell Suspension • a) The medium was collected from the culture bottle and centrifuged at 1000 rpm for 5 min. • b) The supernatant was discarded, and the cells were resuspended in medium containing 10% fetal bovine serum, and counted to prepare a cell suspension (cell viability was greater than 90%). • c) The cell suspension was added into a 96-well plate, with […] in each well, namely 5000 MV-4-11 cells/well; 5000 MOLM-13 cells/well. • d) The cell plate was cultured overnight in a 37° C., 5% CO2 incubator.
(§3) Dilution of Compounds in DMSO: • a) MV-4-11 cells: The compounds were diluted with DMSO from 10 mM to 60 uM, and then subjected to a 3-fold serial gradient dilution in DMSO from 60 uM, resulting in 9 concentrations. • b) MOLM-13 cells: The compounds were diluted with DMSO from 10 mM to 200 uM, and then subjected to a 3-fold serial gradient dilution in DMSO from 200 uM, resulting in 9 concentrations. • c) Compound Taxol was diluted with DMSO from 10 mM to 200 uM, and then subjected to a 3-fold serial gradient dilution in DMSO from 200 uM, resulting in 9 concentrations.
(§4) (4) Treatment of Cells with Compounds (after the Overnight Incubation of the Cell Plate) • a) Each well was replenished with 99 μl of growth medium containing 10% FBS, and then 1 μl of the diluted compound was added to the well. The concentration of DMSO was 0.5%. • b) Concentrations of the tested compounds were: MV-4-11 cells: 300, 100, 33.3, 11.1, 3.7, 1.23, 0.41, 0.137, 0.046, 0 [nM]. • MOLM-13 cells: 1000, 333.3, 111.1, 37.04, 12.35, 4.1, 1.37, 0.46, 0.15, 0 [nM]. • c) Concentrations of control compound Taxol were: 1000, 333.3, 111.1, 37.04, 12.35, 4.12, 1.37, 0.46, 0.15, 0 [nM]. • d) The cell plate was placed in the incubator for 72 hours.
(§5) (5) CTG Assay • a) The test plate was placed at room temperature and equilibrated for 30 minutes, and 60 μl of the culture medium was discarded. • b) 60 μl of CTG reagent (CelltiterGlo kit) was added, and the plate was placed on a rapid plate shaker to shake for 2 min, and then let it stand at room temperature for 20 min. • c) Envision was used to read the values.
(§6) IC50 values were calculated using GraphPad Prism 6 software. The IC50 (half inhibitory concentration) values of the compounds were obtained by the following non-linear fitting formula. Y=Bottom+(Top−Bottom)/(1+10^((Log IC50−X)*HillSlope)) • X: Log value of the compound concentration • Y: Inhibition rate (% inhibition) % inhibition (inhibition rate)=100*(value of the High Control-value of the test compound well)/(value of the High Control-value of the Low Control)

[2] = system: MOLM-13 cells; test: Inhibition of cell MOLM-13 proliferation (CTG assay); format: cell-based; settings: Homo sapiens, 72 hours, read-out: MOLM-1 IC50
Source text: as §1, §2, §3, §4, §5, §6

[3] = Pharmacokinetic experiment in rats; format: in vivo, Sprague-Dawley rats; settings: rat; for AUC(0-t) / Cmax / Tmax / half-life / AUC(0-inf) / MRT inf: male, Sprague-Dawley, plasma; for AUC(0-inf): read-out: AUCINF_pred; for MRT inf: read-out: MRTINF_pred
Experimental: Six male Sprague-Dawley rats, 7 to 8 weeks old, weighing approximately 210 g, were divided into 2 groups with 3 rats in each group. The pharmacokinetic differences of the compounds were compared after they were administered to the rats at a single dose through vein (in vein 3 mg/kg) or mouth (orally 10 mg/kg).
The rats were fed with standard feed and water, and fasted 16 hours before the experiment. The drugs were dissolved with PEG400 and dimethyl sulfoxide. The blood samples were collected from eyelids at the time point of 0.083, 0.25, 0.5, 1, 2, 4, 6, 8, 12 and 24 hours after administration.
The rats were anesthetized for a short time after inhaling ether, and 300 μL of blood samples was collected from the eyelids and put into test tubes, which contains 30 μL of 1% heparin salt solution. The test tubes were dried overnight at 60° C. prior to use. After the blood sample collection at the last time point, the rats were sacrificed after the ether anesthesia.
Immediately after the collection of the blood samples, the test tubes were gently inverted at least 5 times to ensure the fully mixing and placed on ice. The blood samples were centrifuged at 4° C., 5000 rpm for 5 minutes to separate the plasma from the red blood cells. 100 μL of plasma was pipetted into a clean plastic centrifuge tube, with the name of the compound and time point on it. The plasma was stored at −80° C. before analysis, and LC-MS/MS was used to determine the concentration of the compounds disclosed herein in plasma. Pharmacokinetic parameters were calculated based on the plasma concentrations of each animal at different time points.

[4] = system: Ba/F3 FLT3-ITD cells; test: Inhibition of Ba/F3 FLT3-ITD cell proliferation (CTG); format: cell-based; settings: 72 hours, read-out: BaF3 [FLT3-ITD] IC50
Experimental: (§7) Cell lines were cultured under the condition of 37° C., 5% CO2 and 95% humidity: cell line Ba/F3 parental (suspended, 3000 cells/well, medium was RPMI-1640+10% FBS+8 ng/ml IL-3), cell line Ba/F3 FLT3-ITD (suspended, 3000 cells/well, medium was RPMI-1640+10% FBS)
(§8) Reagents and materials: Fetal bovine serum (FBS, GBICO, Cat. No. 10099-141), CellTiter-Glo® Luminescent Cell Viability Assay (Promega, Cat. No. G7572), 96-well plate with transparent flat bottom and black walls (Corning®, Cat. No. 3603), control compound AC220 (Selleck, Cat. No. S1526).
(§9) Cell Culture and Inoculation: • 1. Cells in the logarithmic growth phase were harvested and counted using a platelet counter. The cell viability was determined by trypan blue exclusion method to ensure that the cell viability was greater than 90%; • 2. The cell concentration was adjusted and 90 μL of the cell suspension was added into a 96-well plate respectively; • 3. The cells in the 96-well plate were cultured overnight under the condition of 37° C., 5% CO2 and 95% humidity.
(§10) Drug Dilution and Dosing: • 1. The 10-fold drug solutions were prepared with a maximum concentration of 100 μM, which was diluted using a 3.16-fold serial gradient dilution, resulting in 9 concentrations. 10 μL of the drug solutions was added to each well of the 96-well plate inoculated with Ba/F3 parental cells; and each drug concentration was set in triplicate. • 2. The 10-fold drug solutions were prepared with a maximum concentration of 10 μM, which was diluted using a 3.16-fold serial gradient dilution, resulting in 9 concentrations. 10 μL of the drug solutions was added to each well of the 96-well plate inoculated with Ba/F3 FLT3-ITD cells; and each drug concentration was set in triplicate. • 3. The cells in the 96-well plate with drugs were cultured at 37° C., 5% CO2 and 95% humidity for 72 hours, and then CTG analysis was carried out.
(§11) Plate Reading at the End Point: • 1. CTG reagent was thawed and the cell plate was equilibrated to room temperature for 30 minutes; • 2. Equal volume of the CTG solution was added to each well; • 3. The cell plate was shaked on the orbital shaker for 5 minutes to lyse the cells; • 4. The cell plate was placed at room temperature for 20 minutes to stabilize the cold light signal; • 5. The cold light values were read.
(§12) GraphPad Prism 8.0 software was used to analyze the data, and the data was fitted using the non-linear S-curve regression to get a dose-effect curve, and IC50 values were calculated. Cell viability (%)=(Lum of test drug−Lum of medium control)/(Lum of cell control−Lum of medium control)×100%.

[5] = system: Ba/F3 parental cells; test: Inhibition of Ba/F3 parental cell proliferation (CTG); format: cell-based; settings: Mus musculus, BaF3, 72 hours, with IL-3
Experimental: as §7, §8, §9, §10, §11, §12

IC50 [1] [nM] | IC50 [2] [nM] | AUC(0-t) ([3]; IV 3 mg/kg) [ng·h/mL] | Cmax ([3]; IV 3 mg/kg) [ng/mL] | Tmax ([3]; IV 3 mg/kg) [h] | half-life ([3]; IV 3 mg/kg) [h] | AUC(0-inf) ([3]; IV 3 mg/kg) [ng·h/mL] | MRT inf ([3]; IV 3 mg/kg) [h] | AUC(0-t) ([3]; PO 10 mg/kg) [ng·h/mL] | Cmax ([3]; PO 10 mg/kg) [ng/mL] | Tmax ([3]; PO 10 mg/kg) [h] | half-life ([3]; PO 10 mg/kg) [h] | AUC(0-inf) ([3]; PO 10 mg/kg) [ng·h/mL] | MRT inf ([3]; PO 10 mg/kg) [h] | Vz_pred ([3]; IV 3 mg/kg) [L/kg] | Vz_pred ([3]; PO 10 mg/kg) [L/kg] | F ([3]; PO 10 mg/kg vs IV 3 mg/kg) [%] | IC50 [4] [nM] | SMILES | IC50 [5] [nM]
1.92 | 13 | 639 | 138 | 0.08 | 4.52 | 651 | 4.56 | 666 | 61.2 | 4 | 4.07 | 687 | 8.11 | 30.45 | 87.60 | 31.26 |  | [2H]C([2H])([2H])C([2H])([2H])c1nc(C(N)=O)c(Nc2ccc(N3CCC(N4CCN(C)CC4)CC3)c(OC)c2)nc1NC1CCOCC1 [Compound T-4, 6-(ethyl-d5)-3-((3-methoxy-4-(4-(4-methylpiperazin-1-yl)piperidin-1-yl)phenyl)amino)-5-((tetrahydro-2H-pyran-4-yl)amino)pyrazine-2-carboxamide] | 
2.07 | 11.9 |  |  |  |  |  |  |  |  |  |  |  |  |  |  |  | 69.1 | [2H]C([2H])([2H])Oc1cc(Nc2nc(NC3CCOCC3)c(C([2H])([2H])C([2H])([2H])[2H])nc2C(N)=O)ccc1N1CCC(N2CCN(C)CC2)CC1 [Compound T-6, 6-(ethyl-d5)-3-((3-(methoxy-d3)-4-(4-(4-methylpiperazin-1-yl)piperidin-1-yl)phenyl)amino)-5-((tetrahydro-2H-pyran-4-yl)amino)pyrazine-2-carboxamide] | > 10000
1.64 | 12.7 |  |  |  |  |  |  |  |  |  |  |  |  |  |  |  | 53.9 | [2H]C1([2H])CN(c2ccc(Nc3nc(NC4CCOCC4)c(CC)nc3C(N)=O)cc2OC)CC([2H])([2H])C1N1CCN(C)CC1 [Compound T-7, 6-ethyl-3-((3-methoxy-4-(4-(4-methylpiperazin-1-yl)piperidin-1-yl-3,3,5,5-d4)phenyl)amino)-5-((tetrahydro-2H-pyran-4-yl)amino)pyrazine-2-carboxamide] | 8430
